Data on two molecules can be found in patent US20060166953A1, “Ciclesonide-containing sterile aqueous suspension” (priority 2002, published 2006).

This series can be described thus: Chemical stability of drug in the aqueous suspension against autoclaving (recovery rate by HPLC). The series is classed as physicochemical. The procedure: Comparison of Chemical Stability of Drug in the Aqueous Suspension Against Autoclaving
The suspension of Example 1 was put into a 500 mL glass container with a screw cap and sterilized by autoclaving at 121 degrees C. for 20 minutes. Subsequently, after mixing the suspension in the glass container, the ciclesonide concentration was quantified by HPLC.
The recovery rate of ciclesonide after the autoclaving was calculated by taking the ciclesonide concentration before the autoclaving to be 100%. The recovery rates of budesonide and beclomethasone dipropionate after the autoclaving were calculated by the same method.

On to `CC(C)C(=O)OCC(=O)[C@@]12O[C@H](C3CCCCC3)O[C@@H]1C[C@H]1[C@@H]3CCC4=CC(=O)C=C[C@]4(C)[C@H]3[C@@H](O)C[C@@]12C` [ciclesonide, (11β,16α)-16,17-[cyclohexylmethylenebis(oxy)]-11-hydroxy-21-(2-methyl-1-oxopropoxy)pregna-1,4,-diene-3,20-dione], for which the “Degradation by autoclaving procedure” value is listed as “not degraded”.
The entry for `CCCC1O[C@@H]2C[C@H]3[C@@H]4CCC5=CC(=O)C=C[C@]5(C)[C@H]4[C@@H](O)C[C@]3(C)[C@]2(C(=O)CO)O1` (stereo partly drawn) [budesonide, 16α,17-[(1RS)-butylidene-bis(oxy)]-11β,21-dihydroxypregna-1,4-diene-3,20-dione] is “degraded”.
